Values joined by “and” are separate entries in the source; they are usually repeats but may differ in a detail not shown here. Equal entries are not always repeated.
Assays:
5-HT receptors = assay: Binding and enzyme target profile screen (Eurofins); conditions: competitive binding screen
Procedure: These experiments were performed by an outside vendor (Eurofins, France). […] In each experiment, the respective reference compound was tested concurrently with the test compound to assess the assay reliability. […] Following incubation, the samples were filtered rapidly under vacuum through glass fiber filters presoaked in a buffer and rinsed several times with an ice-cold buffer using a 48-sample or 96-sample cell harvester. The filters were counted for radioactivity in a scintillation counter using a scintillation cocktail.

[1] = test system: animals without DREADD expression; assay: In vivo electrophysiology control: electrically evoked responses in animals without DREADD expression; set-up: species or system mouse; conditions: same injection
Procedure: For recording experiments, animals were anesthetized with […] urethane (i.p.), injected with 0.1 ml lidocaine (s.c.) in the incision points, and placed in a stereotaxic holder (Narishige, Japan). A trephine was drilled above the LA (from bregma, AP 1.5 mm, ML 3.1 mm) and the 32 channel opto-electrode was lowered whilst stimulating until a maximum response was located (DV 4 ± 0.2 mm). Body temperature was maintained constant at 37 °C through a feedback-regulated heating pad. Before recording, tissue was left for 10–20 mins for accommodation. Input–output test curves were recorded for both intensity and pulse length 30 min before and 1 h after drug injections using 1 ms-long pulses at 0.33 Hz (450 nm, 110 mA light intensity, ~14 mW, see Supplementary Fig. 10 Panel A). For electrical stimulation experiments (see Supplementary Fig. 10, Panels F–H), a stimulation bipolar twisted platinum–iridium microelectrode was placed in the internal capsule (AP −1.7 mm, ML 2.5 mm, DV 4.0 mm) to target the axons innervating the amygdala. Electrical pulses were given at an intensity that evoked 80% of the maximum response as biphasic 100 µs long pulses at 0.33 Hz.
Raw data were filtered (0.1–3000 Hz), amplified (100×), digitized and stored (10 kHz sampling rate) for offline analysis, with a tethered recording system (Multichannel Systems, Reutlingen, Germany). […]

WT littermates = assay: Locomotor activity in WT littermate rats; assay type: in vivo, rat
Procedure: Tyrosine hydroxylase (TH):Cre rats (n = 9; founder, K. Deisseroth lab) or WT littermates (n = 9) were bilaterally injected with AAV2 hSyn-DIO-hM3Dq-mCherry (1ul/hemisphere, Addgene), and allowed to recover for 2 + weeks. Following handling, they were habituated to a Med Associates locomotor testing box (43 × 43 × 30.5 cm) for 2 h on 2 days, then repeatedly tested after separate day doses of DREADD agonists and vehicle. […]. Vehicle was administered on 2 separate days, and average locomotion was used for comparison with DREADD agonists. Cohort 2 underwent the same procedures, but with a 4 h testing session, and the following IP injections: vehicle (x2), JHU37152 (0.01–0.3 mg kg^−1), JHU37160 (0.01–0.3 mg kg^−1). All drugs were dissolved in 5% DMSO in saline, and injected 1 ml kg^−1. Following all tests, rats were transcardially perfused, brains sectioned coronally at 40 µm, and VTA-specific expression confirmed using endogenous mCherry reporter expression, which co-localized nearly exclusively with TH immunoreactivity.

hM3Dq = hM3Dq (Homo sapiens, UniProt P20309, A239G/Y149C); assay: DREADD-assisted metabolic mapping (DREAMM), [18F]FDG PET in D1-hM3Dq mice; assay type: in vivo, mouse; set-up: 026220; host or cells: mouse brain, dopamine D1 receptor-expressing neurons (transgene); conditions: 0.1 mg kg-1 IP
Procedure: (§1) Mice (D1-hM3Dq, D1-hM4Di or WT littermates, see above) were habituated to experimenter handling and fasted 16 h before the experiment. On the day of the experiment, mice received an IP injection of vehicle (1 ml kg^−1) and were placed back into their home cages. Ten minutes later, mice were injected (IP) with 11 MBq of 2-deoxy-2-[^18F]fluoro-D-glucose (FDG, Cardinal Health) and placed back into their home cages. After 30 min, mice were anesthetized with 1.5% isoflurane, placed on a custom-made bed of a nanoScan small animal PET/CT scanner (Mediso Medical Imaging Systems) and scanned for 20 min on a static acquisition protocol, followed by a CT scan. […] Voxel-based repeated measures with Student’s t test comparing baseline to drug were performed, and the resulting parametric images were filtered for statistically significant (p < 0.05) clusters larger than 100 contiguous voxels. All statistical parametric mapping analyses were performed using Matlab R2016 (Mathworks) and SPM12 (University College London).

hM4Di = molecular target: T1, hM4Di (Homo sapiens, UniProt P08173, A203G/Y113C); assay: DREADD-assisted metabolic mapping (DREAMM), [18F]FDG PET in D1-hM4Di mice; assay type: in vivo, mouse; set-up: 026219; host or cells: mouse brain, dopamine D1 receptor-expressing neurons (transgene); conditions: 0.1 mg kg-1 IP
T1 sequence (P08173 1-479 Y113C/A203G): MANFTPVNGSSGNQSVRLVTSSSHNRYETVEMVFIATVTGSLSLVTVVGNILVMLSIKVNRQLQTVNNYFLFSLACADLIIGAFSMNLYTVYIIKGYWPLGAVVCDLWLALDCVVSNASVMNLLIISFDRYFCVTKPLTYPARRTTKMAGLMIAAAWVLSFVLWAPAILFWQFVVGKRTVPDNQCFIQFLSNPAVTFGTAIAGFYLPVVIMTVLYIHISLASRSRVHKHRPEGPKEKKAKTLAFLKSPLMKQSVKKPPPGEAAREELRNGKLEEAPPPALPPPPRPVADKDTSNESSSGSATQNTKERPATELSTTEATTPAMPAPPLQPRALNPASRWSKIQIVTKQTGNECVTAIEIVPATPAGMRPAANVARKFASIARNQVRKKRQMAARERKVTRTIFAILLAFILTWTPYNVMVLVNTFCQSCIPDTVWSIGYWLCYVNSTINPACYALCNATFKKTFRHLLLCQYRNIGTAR
Procedure: as §1

Chain of hM3Dq (P20309 whole entry Y149C/A239G): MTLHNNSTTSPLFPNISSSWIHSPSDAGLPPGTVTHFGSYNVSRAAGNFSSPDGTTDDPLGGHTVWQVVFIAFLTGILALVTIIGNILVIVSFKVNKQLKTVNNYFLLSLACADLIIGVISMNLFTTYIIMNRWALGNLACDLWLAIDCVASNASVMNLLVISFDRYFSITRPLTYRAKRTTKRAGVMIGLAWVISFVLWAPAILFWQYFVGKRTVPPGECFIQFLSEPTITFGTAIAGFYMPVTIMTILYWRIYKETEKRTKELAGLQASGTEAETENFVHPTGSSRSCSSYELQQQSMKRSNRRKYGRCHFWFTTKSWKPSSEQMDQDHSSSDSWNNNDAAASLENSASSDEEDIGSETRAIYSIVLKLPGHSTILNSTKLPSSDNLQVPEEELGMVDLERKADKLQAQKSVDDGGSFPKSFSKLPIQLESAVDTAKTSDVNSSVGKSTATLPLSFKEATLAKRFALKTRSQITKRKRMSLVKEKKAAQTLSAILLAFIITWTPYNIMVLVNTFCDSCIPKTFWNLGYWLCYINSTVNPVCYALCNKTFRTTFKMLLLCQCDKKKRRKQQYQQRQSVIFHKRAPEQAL

Structure (SMILES): CCN1CCN(C2=Nc3cc(Cl)ccc3Nc3c(F)cccc32)CC1 [JHU37160, 8-Chloro-11-(4-ethylpiperazin-1-yl)-4-fluoro-5H-dibenzo[b,e][1,4]diazepine]
- affinity at 5-HT receptors relative to clozapine (5-HT receptors): lower affinity than clozapine
- effect on electrical stimulation evoked responses [1]: no effect
- Locomotor activity, individual animals (Figure 3 Panel F) (WT littermates; dose 0.01, listed as J60): 108.174 and 103.461 and 68.1848 and 77.4203 and 88.3922 and 59.3537 and 61.4668
- Locomotor activity, individual animals (Figure 3 Panel F) (WT littermates; dose 0.1, listed as J60): 208.38 and 83.765 and 47.1951 and 156.41 and 190.369 and 42.7803 and 81.1685
- brain metabolism ([18F]FDG) (hM3Dq): decreased metabolism
- brain metabolism ([18F]FDG) (hM4Di): increased metabolism

Structure (SMILES): CCN1CCN(C2=Nc3cc(Cl)ccc3Nc3cccc(F)c32)CC1 [JHU37152, 8-Chloro-11-(4-ethylpiperazin-1-yl)-1-fluoro-5H-dibenzo[b,e][1,4]diazepine]
- affinity at 5-HT receptors relative to clozapine (5-HT receptors): lower affinity than clozapine
